Laboratory results as given in patent EP0070049A1, “Derivative of acetylsalicylic acid having an analgetic, antipyretic, antiphlogistic and bronchosecretolytic activity” (UNIONE CHIMICA MEDICAMENTI- DIFME-S.p.A., priority 1981, dated 1983).

What was measured:
[1] = system: température corporelle, augmentée par l'injection intraveineuse de nucléinate de sodium dans le lapin; assay: Antipyretic activity: rise in body temperature induced by intravenous sodium nucleinate; type: in vivo; conditions: for Augmentation temperature corporelle - °C ± d.s. après 1 heure: 1 heure après l'administration; for Augmentation temperature corporelle - °C ± d.s. après 2 heures: 2 heures après l'administration; for Augmentation temperature corporelle - °C ± d.s. après 3 heures: 3 heures après l'administration; for Augmentation temperature corporelle - °C ± d.s. après 4 heures: 4 heures après l'administration
Description: L'activité antipyrétique de l'acétylsalicylate de 2(o-méthoxy-phénoxy)éthanol a été evaluée en comparaison avec celle de l'acide acétylsalicylique suivant la méthode, universellement employée, de la mesure de la variation de la température corporelle, augmentée par 1' injection intraveineuse de nucléinate de sodium dans le lapin. Les résultats de l'élaboration statistique des épreuves sont indiqués dans le suivant Tableau 2, dans lequel l'augmentation de la température corporelle est indiquée en °C ± la déviation standard, et a été mesurée 1, 2, 3 et 4 heures après l'administration; pour les autres valeurs est valable ce qui a été spécifié en relation avec le Tableau 1.

[2] = system: oedème induit par carraghénine injectée dans la patte de rats; assay: Carrageenan-induced rat paw oedema (antiphlogistic activity, Winter et al); type: in vivo; conditions: voie orale; for Volume de l'oedème - ml ± d.s. après 3 heures: 3 heures après le traitement oedémigène; for Volume de l'oedème - ml ± d.s. après 6 heures: 6 heures après le traitement oedémigène
Description: L'activité antiphlogistique de l'acétylsalicylate de 2(o-méthoxy-phénoxy) éthanol a été évaluée en comparaison avec celle de l'acide acétylsalicylique sur la base de la variation de volume de l'oedème induit par carraghénine injectée dans la patte de rats, suivant la technique décrite par Winter et al (Proc. Soc. Exp. Biol. Med., volume III, page 544, 1962). Les résultats de l'élaboration des épreuves sont indiqués dans le Tableau 1, dans lequel le volume de l'oedème est indiqué en millilitres z la déviation standard, et il a été mesuré 3, 4,5 et 6 heures après le traitement oedémigène; la dose de substance est indiquée en milligrammes de substance administrée par voie orale pour chaque kilogramme de poids corporel des rats; les valeurs marquées par * correspondent à une probabilité d'erreur p < 0,05, les valeurs marquées correspondent à une probabilité d'erreur p < 0,01, calculées sur les valeurs des contrôles, et les valeurs indiquées entre parenthèses indiquent l'inhibition en pour-cent calculée par rapport aux contrôles.

rats = conditions: rat, in vivo, 500 mg/kg
Description: La toxicité subaiguë de l'acétylsalicylate de 2(o-méthoxy-phénoxy)éthanol a été évaluée en comparaison avec celle de l'acide acétylsalicylique en administrant à des rats, par voie orale, des doses journalières de substance pour 10 jours, et en relevant le nombre des animaux morts, la diminution moyenne de poids des animaux traités et l'incidence des lésions gastriques relevées, distinguées en simple hyperémie, hyperémie accompagnée par hémorragie et hémorragie accompagnée par ulcérations. Les résultats des épreuves sont indiqués dans le Tableau 5, dans lequel la dose de substance administrée est exprimée en mg de substance par kg de poids corporel et par jour, et la diminution moyenne de poids corporel à la fin du traitement est exprimée en grammes.

[3] = system: convulsions abdominales (writhings) induites dans le souris par une injection intrapéritonéale d'acide acétique; assay: Acetic acid writhing test (analgesic activity, Koster and Anderson); type: in vivo; conditions: for Frequence writhings: souris, 60 minutes après l'administration, ± déviation standard
Description: L'activité analgésique de l'acétylsalicylate de 2(o-méthoxy-phénoxy)éthanol a été évaluée en comparaison avec celle de l'acide acétylsalicylique sur la base de la fréquence des convulsions abdominales (writhings) induites dans le souris par une injection intrapéritonéale d'acide acétique, suivant la technique décrite par Koster et Anderson (Fed. Proc., volume 18, page 412, 1959). Les résultats de l'élaboration statistique des épreuves sont indiqués dans le suivant Tableau 3, dans lequel la fréquence des convulsions est indiquée comme nombre de convulsions par minute ± la déviation standard, et a été mesurée 60 minutes après l'administration; pour les autres valeurs est valable ce qui a été spécifié en relation avec le Tableau 1.

[4] = system: arbre bronchial de rats Wistar; assay: Bronchosecretolytic activity: pulmonary excretion of fluorescein (Mawatari); type: in vivo; conditions: rats Wistar, 101,8 mg/Kg
Description: L'activité bronchosécrétolytique de l'acétylsalicylate de 2(o-méthoxy-phénoxy)éthanol a été évaluée en comparaison avec celle du gaïacoléthanol, sur la base de la mesure des variations de la quantité d'indicateur (fluorescéine) trouvée dans l'arbre bronchial de rats Wistar, recueillie au moyen d'un système de lavage standardisé, après injection parentérale de l'indicateur, et mesurée au moyen d'un spectrofluorométre, suivant la méthode décrite par H.Mawatari ("Expérimental studies on the expectorant action of several drugs", Kagoshima Daigakeu Igakeu Zasshi, volume 27, page 561, 1976). Les résultats de l'élaboration statistique des épreuves sont recueillis dans le suivant tableau 4,dans lequel l' excrétion pulmonaire de fluorescéine est exprimée en microgrammes ± la déviation standard, soit dans la quantité totale trouvée, soit dans la quantité pour-cent rapportée à 100 g de poids corporel des rats. Entre parenthèses sont indiquées les valeurs de l'augmentation pour-cent par rapport aux contrôles. Pour les autres valeurs est valable ce qui été précisé en relation au Tableau 1.

CC(=O)Oc1ccccc1C(=O)O [Acide acétyl-salicylique, acide acétylsalicylique, reference compound]
inhibition en pour-cent calculée par rapport aux contrôles, après 1 heure ([1]; 100 mg/Kg): 40 pour-cent | Augmentation temperature corporelle - °C ± d.s. après 1 heure ([1]; 100 mg/Kg): 0,75 ± 0,16 °C | inhibition en pour-cent calculée par rapport aux contrôles, après 2 heures ([1]; 100 mg/Kg): 46 pour-cent | Augmentation temperature corporelle - °C ± d.s. après 2 heures ([1]; 100 mg/Kg): 0,78 ± 0,17 °C | inhibition en pour-cent calculée par rapport aux contrôles, après 3 heures ([1]; 100 mg/Kg): 43 pour-cent | Augmentation temperature corporelle - °C ± d.s. après 3 heures ([1]; 100 mg/Kg): 0,94 ± 0,12 °C | inhibition en pour-cent calculée par rapport aux contrôles, après 4 heures ([1]; 100 mg/Kg): 26 pour-cent | Augmentation temperature corporelle - °C ± d.s. après 4 heures ([1]; 100 mg/Kg): 0,55 ± 0,1 °C | inhibition en pour-cent calculée par rapport aux contrôles, après 1 heure ([1]; 200 mg/Kg): 50 pour-cent | Augmentation temperature corporelle - °C ± d.s. après 1 heure ([1]; 200 mg/Kg): 0,62 ± 0,13 °C | inhibition en pour-cent calculée par rapport aux contrôles, après 2 heures ([1]; 200 mg/Kg): 51 pour-cent | Augmentation temperature corporelle - °C ± d.s. après 2 heures ([1]; 200 mg/Kg): 0,71 ± 0,18 °C | inhibition en pour-cent calculée par rapport aux contrôles, après 3 heures ([1]; 200 mg/Kg): 43 pour-cent | Augmentation temperature corporelle - °C ± d.s. après 3 heures ([1]; 200 mg/Kg): 0,93 ± 0,16 °C | inhibition en pour-cent calculée par rapport aux contrôles, après 4 heures ([1]; 200 mg/Kg): 31 pour-cent | Augmentation temperature corporelle - °C ± d.s. après 4 heures ([1]; 200 mg/Kg): 0,52 ± 0,07 °C | inhibition en pour-cent calculée par rapport aux contrôles, après 3 heures ([2]; 100 mg/Kg): 44,0 pour-cent | Volume de l'oedème - ml ± d.s. après 3 heures ([2]; 100 mg/Kg): 0,380 ± 0,21 ml | inhibition en pour-cent calculée par rapport aux contrôles, après 4,5 heures ([2]; 100 mg/Kg, 4,5 heures): 35,0 pour-cent | Volume de l'oedème - ml ± d.s. après 4,5 heures ([2]; 100 mg/Kg, 4,5 heures après le traitement oedémigène): 0,395 ± 0,14 ml | inhibition en pour-cent calculée par rapport aux contrôles, après 6 heures ([2]; 100 mg/Kg): 41,0 pour-cent | Volume de l'oedème - ml ± d.s. après 6 heures ([2]; 100 mg/Kg): 0,285 ± 0,18 ml | inhibition en pour-cent calculée par rapport aux contrôles, après 3 heures ([2]; 200 mg/Kg): 56,5 pour-cent | Volume de l'oedème - ml ± d.s. après 3 heures ([2]; 200 mg/Kg): 0,297 ± 0,17 ml | inhibition en pour-cent calculée par rapport aux contrôles, après 4,5 heures ([2]; 200 mg/Kg, 4,5 heures): 39,0 pour-cent | Volume de l'oedème - ml ± d.s. après 4,5 heures ([2]; 200 mg/Kg, 4,5 heures après le traitement oedémigène): 0,370 ± 0,09 ml | inhibition en pour-cent calculée par rapport aux contrôles, après 6 heures ([2]; 200 mg/Kg): 43,0 pour-cent | Volume de l'oedème - ml ± d.s. après 6 heures ([2]; 200 mg/Kg): 0,275 ± 0,18 ml | Lésions gastriques Hyperémie (rats): 4 | Lésions gastriques Hyperémie + hémorragie (rats): 3 | Lésions gastriques Hémorragie + ulcérations (rats): 2 | Nombre animaux morts (rats): 6 | Δ poids moyenne (rats): -30 grammes | inhibition at 100 mg/kg ([3]; 1 h): 30% | inhibition at 200 mg/kg ([3]; 1 h): 44% | Frequence writhings ([3]; 100 mg/Kg): *20,5 ± 6,7 convulsions par minute | Frequence writhings ([3]; 200 mg/Kg): **16,4 ± 5,8 convulsions par minute

COc1ccccc1OCCO [Gaïacol-éthanol, gaïacoléthanol, reference compound]
augmentation pour-cent par rapport aux contrôles (excrétion pulmonaire de fluorescéine, quantité totale) [4]: +72,2 pour-cent | Excrétion pulmonaire de fluorescéine Quantité pour-cent µg/100 g ([4]; rapportée à 100 g de poids corporel, ± déviation standard): 0,202 ± 0,034 µg/100 g | Excrétion pulmonaire de fluorescéine Quantité totale µg ([4]; ± déviation standard): 0,434 ± 0,064 µg
